We go through 22 compounds from patent US9226916B2, “Pyrrolidine derivatives” (HOFFMANN-LA ROCHE INC., priority 2009, dated 2016).

In one test the target is T1, recombinant human NK3 receptor (Homo sapiens, UniProt P29371).
T1 construct: expressed in transfected cells; host or cells: HEK293 cells, transient expression; membranes
T1 sequence (P29371 1-465): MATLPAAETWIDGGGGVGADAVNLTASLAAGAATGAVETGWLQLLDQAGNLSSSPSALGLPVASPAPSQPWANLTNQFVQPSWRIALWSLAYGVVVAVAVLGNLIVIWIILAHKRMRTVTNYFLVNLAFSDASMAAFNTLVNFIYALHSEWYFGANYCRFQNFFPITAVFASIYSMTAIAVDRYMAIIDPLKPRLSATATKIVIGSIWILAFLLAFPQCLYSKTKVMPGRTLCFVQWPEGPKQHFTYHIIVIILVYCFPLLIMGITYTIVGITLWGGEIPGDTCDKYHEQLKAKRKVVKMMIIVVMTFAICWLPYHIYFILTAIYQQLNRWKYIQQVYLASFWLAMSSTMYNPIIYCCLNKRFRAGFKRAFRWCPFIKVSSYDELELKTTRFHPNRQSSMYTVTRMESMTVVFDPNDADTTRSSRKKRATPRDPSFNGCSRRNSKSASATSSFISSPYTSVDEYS
Nature of the test: [3H]SR142801 competition binding assay.
Conditions: not given
On to `CN(C(=O)OCCC(F)(F)C(F)(F)F)[C@H]1CN(C(=O)C2CCN(C(=O)C3(C)CC3)CC2)C[C@@H]1c1ccc(Cl)c(Cl)c1` (racemic) [Example 83, rac-{(3R,4S)-4-(3,4-Dichloro-phenyl)-1-[1-(1-methyl-cyclopropanecarbonyl)-piperidine-4-carbonyl]-pyrrolidin-3-yl}-methyl-carbamic acid 3,3,4,4,4-pentafluoro-butyl ester], for which the Ki was 4.2 nM.

Consider `CN(C(=O)Oc1ccc(F)cc1)[C@H]1CN(C(=O)C2CCN(CC3CC3)CC2)C[C@@H]1c1ccc(Cl)c(Cl)c1` (racemic) [Example 4, rac-[(3R,4S)-1-(1-Cyclopropylmethyl-piperidine-4-carbonyl)-4-(3,4-dichloro-phenyl)-pyrrolidin-3-yl]-methyl-carbamic acid 4-fluoro-phenyl ester], for which the Ki was 1.8 nM.

As to `CO[C@H]1CC[C@@H](C(=O)N2C[C@H](c3ccc(Cl)c(Cl)c3)[C@@H](N(C)C(=O)Oc3ccc(F)cc3)C2)CC1` (racemic) [Example 49, rac-[(3R,4S)-4-(3,4-Dichloro-phenyl)-1-(cis-4-methoxy-cyclohexanecarbonyl)-pyrrolidin-3-yl]-methyl-carbamic acid 4-fluoro-phenyl ester], the Ki is 3.5 nM.

As for `CN(C(=O)Oc1ccc(F)cc1)[C@@H]1CN(C(=O)C2CCN(c3cnc(C#N)cn3)CC2)C[C@H]1c1ccc(Cl)cc1` [Example 193, {(3S,4R)-4-(4-Chloro-phenyl)-1-[1-(5-cyano-pyrazin-2-yl)-piperidine-4-carbonyl]-pyrrolidin-3-yl}-methyl-carbamic acid 4-fluoro-phenyl ester], the Ki came to 1.1 nM.

For `CN(C(=O)O[C@H]1CC[C@H](C)CC1)[C@H]1CN(C(=O)C2CCN(C(=O)C3(C)CC3)CC2)C[C@@H]1c1ccc(Cl)cc1` (racemic) [Example 57, rac-{(3R,4S)-4-(4-Chloro-phenyl)-1-[1-(1-methyl-cyclopropanecarbonyl)-piperidine-4-carbonyl]-pyrrolidin-3-yl}-methyl-carbamic acid 4-methyl-cyclohexyl ester], the Ki was found to be 7.6 nM.

With `CN(C(=O)Oc1ccc(F)cc1)[C@@H]1CN(C(=O)C2CCN(c3ccc(C#N)nc3)CC2)C[C@H]1c1ccc(Cl)cc1` [Example 198, [(3S,4R)-4-(4-Chloro-phenyl)-1-(6′-cyano-3,4,5,6-tetrahydro-2H-[1,3]bipyridinyl-4-carbonyl)-pyrrolidin-3-yl]-methyl-carbamic acid 4-fluoro-phenyl ester], the Ki came to 0.5 nM.

As to `CN(C(=O)Oc1ccccc1)[C@H]1CN(C(=O)C2CCN(CC3CC3)CC2)C[C@@H]1c1ccc(Cl)c(Cl)c1` (racemic) [Example 7, rac-[(3R,4S)-1-(1-Cyclopropylmethyl-piperidine-4-carbonyl)-4-(3,4-dichloro-phenyl)-pyrrolidin-3-yl]-methyl-carbamic acid phenyl ester], the Ki came out at 9.6 nM.

Take `CN(C(=O)OCC1CCCO1)[C@@H]1CN(C(=O)C2CCN(c3ccc(C#N)cn3)CC2)C[C@H]1c1ccc(Cl)cc1` (stereo partly drawn) [Example 232, [(3S,4R)-4-(4-Chloro-phenyl)-1-(5′-cyano-3,4,5,6-tetrahydro-2H-[1,2′]bipyridinyl-4-carbonyl)-pyrrolidin-3-yl]-methyl-carbamic acid tetrahydro-furan-2-ylmethyl ester]: the inhibition constant (Ki) turned out to be 21.8 nM.

For `CN(C(=O)Oc1ccc(F)cc1)[C@@H]1CN(C(=O)C2CCN(C(=O)C3CCOC(C)(C)C3)CC2)C[C@H]1c1ccc(Cl)c(Cl)c1` (stereo partly drawn) [Example 276, {(3S,4R)-4-(3,4-Dichloro-phenyl)-1-[1-(2,2-dimethyl-tetrahydro-pyran-4-carbonyl)-piperidine-4-carbonyl]-pyrrolidin-3-yl}-methyl-carbamic acid 4-fluoro-phenyl ester], the Ki came out at 1 nM.

For the compound `CN(C(=O)Oc1ccc(F)cc1)[C@@H]1CN(C(=O)C2CCS(=O)(=O)CC2)C[C@H]1c1ccc(Cl)cc1` [Example 93, [(3S,4R)-4-(4-Chloro-phenyl)-1-(1,1-dioxo-hexahydro-1λ^6-thiopyran-4-carbonyl)-pyrrolidin-3-yl]-methyl-carbamic acid 4-fluoro-phenyl ester], the Ki was found to be 6.6 nM.

`CN(C(=O)Oc1ccc(F)cc1)[C@@H]1CN(C(=O)C2CCN(C(=O)C3CCOC(C)(C)C3)CC2)C[C@H]1c1ccc(Cl)cc1` (stereo partly drawn) [Example 258, {(3S,4R)-4-(4-Chloro-phenyl)-1-[1-(2,2-dimethyl-tetrahydro-pyran-4-carbonyl)-piperidine-4-carbonyl]-pyrrolidin-3-yl}-methyl-carbamic acid 4-fluoro-phenyl ester]: the Ki stood at 2.9 nM.

Turning to `CN(C(=O)Oc1ccc(C#N)cc1F)[C@@H]1CN(C(=O)C2CCN(c3ccc(C#N)cn3)CC2)C[C@H]1c1ccc(Cl)cc1` [Example 237, [(3S,4R)-4-(4-Chloro-phenyl)-1-(5′-cyano-3,4,5,6-tetrahydro-2H-[1,2′]bipyridinyl-4-carbonyl)-pyrrolidin-3-yl]-methyl-carbamic acid 4-cyano-2-fluoro-phenyl ester], the Ki amounted to 0.4 nM.

As for `CN(C(=O)Oc1ccc(F)cc1)[C@@H]1CN(C(=O)C2CCN(C(=O)C3CC3(C)C)CC2)C[C@H]1c1ccc(Cl)c(Cl)c1` (stereo partly drawn) [Example 278, {(3S,4R)-4-(3,4-Dichloro-phenyl)-1-[1-(2,2-dimethyl-cyclopropanecarbonyl)-piperidine-4-carbonyl]-pyrrolidin-3-yl}-methyl-carbamic acid 4-fluoro-phenyl ester], the Ki stood at 0.6 nM.

As to `CN(C(=O)Oc1ccc(F)cc1)[C@H]1CN(C(=O)C2CCN(c3ccc(Cl)nn3)CC2)C[C@@H]1c1ccc(Cl)c(Cl)c1` (racemic) [Example 79, rac-[(3R,4S)-1-[1-(6-Chloro-pyridazin-3-yl)-piperidine-4-carbonyl]-4-(3,4-dichloro-phenyl)-pyrrolidin-3-yl]-methyl-carbamic acid 4-fluoro-phenyl ester], the Ki stood at 0.4 nM.

Turning to `CN(C(=O)Oc1ccc(F)cc1)[C@@H]1CN(C(=O)C2CCN(C(=O)C3CCC(=O)NC3)CC2)C[C@H]1c1ccc(F)cc1` (stereo partly drawn) [Example 291, {(3S,4R)-4-(4-Fluoro-phenyl)-1-[1-(6-oxo-piperidine-3-carbonyl)-piperidine-4-carbonyl]-pyrrolidin-3-yl}-methyl-carbamic acid 4-fluoro-phenyl ester], the Ki worked out at 144 nM.

As to `CN(C(=O)Oc1ccc(F)cc1)[C@@H]1CN(C(=O)C2CCOC(C)(C)C2)C[C@H]1c1ccc(Cl)cc1` (stereo partly drawn) [Example 146, [(3S,4R)-4-(4-Chloro-phenyl)-1-(2,2-dimethyl-tetrahydro-pyran-4-carbonyl)-pyrrolidin-3-yl]-methyl-carbamic acid 4-fluoro-phenyl ester], the Ki was 6.8 nM.

`CN(C(=O)Oc1ccc(F)cc1)[C@@H]1CN(C(=O)C2CCN(C(=O)C3(C)CC3)CC2)C[C@H]1c1ccc(Cl)c(Cl)c1` [Example 6, {(3S,4R)-4-(3,4-Dichloro-phenyl)-1-[1-(1-methyl-cyclopropanecarbonyl)-piperidine-4-carbonyl]-pyrrolidin-3-yl}-methyl-carbamic acid 4-fluoro-phenyl ester]: the Ki stood at 0.5 nM.

`CN(C(=O)Oc1ccc(F)cc1)[C@@H]1CN(C(=O)C2CCN(c3ccc(C(N)=O)cn3)CC2)C[C@H]1c1ccc(Cl)cc1` [Example 196, [(3S,4R)-1-(5′-Carbamoyl-3,4,5,6-tetrahydro-2H-[1,2′]bipyridinyl-4-carbonyl)-4-(4-chloro-phenyl)-pyrrolidin-3-yl]-methyl-carbamic acid 4-fluoro-phenyl ester]: the Ki was 2.2 nM.

With `CN(C(=O)Oc1ccc(F)cc1)[C@@H]1CN(C(=O)C2CCN(C(=O)c3ccc(F)cn3)CC2)C[C@H]1c1ccc(Cl)c(Cl)c1` [Example 280, {(3S,4R)-4-(3,4-Dichloro-phenyl)-1-[1-(5-fluoro-pyridine-2-carbonyl)-piperidine-4-carbonyl]-pyrrolidin-3-yl}-methyl-carbamic acid 4-fluoro-phenyl ester], the Ki was determined as 0.8 nM.

The test is the same for the next values; noted with them: hNK-3 receptor affinity; membranes from HEK293 cells transiently expressing recombinant human NK3 receptor; [3H]SR142801; Cheng-Prussoff; read-out: Data Ki.
With `CN(C(=O)OC1CCOCC1)[C@@H]1CN(C(=O)C2CCN(c3ccc(C#N)cn3)CC2)C[C@H]1c1ccc(Cl)cc1` [Example 156, [(3S,4R)-4-(4-Chloro-phenyl)-1-(5′-cyano-3,4,5,6-tetrahydro-2H-[1,2′]bipyridinyl-4-carbonyl)-pyrrolidin-3-yl]-methyl-carbamic acid tetrahydro-pyran-4-yl ester], the Ki was 18.3 nM.

As to `CN(C(=O)OCCC1CC1)[C@@H]1CN(C(=O)C2CCN(C(=O)C3(C)CC3)CC2)C[C@H]1c1ccc(Cl)cc1` (stereo in doubt) [Example 64, {(3S,4R)-4-(4-Chloro-phenyl)-1-[1-(1-methyl-cyclopropanecarbonyl)-piperidine-4-carbonyl]-pyrrolidin-3-yl}-methyl-carbamic acid 2-cyclopropyl-ethyl ester], the Ki amounted to 15.2 nM.

`CN(C(=O)OCCC1CC1)[C@@H]1CN(C(=O)C2CCN(C(=O)C3(C)CC3)CC2)C[C@H]1c1ccc(Cl)c(Cl)c1` [Example 36, {(3S,4R)-4-(3,4-Dichloro-phenyl)-1-[1-(1-methyl-cyclopropanecarbonyl)-piperidine-4-arbonyl]-pyrrolidin-3-yl}-methyl-carbamic acid 2-cyclopropyl-ethyl ester]: the Ki is 33 nM.
